Values joined by “and” are separate entries in the source; they are usually repeats but may differ in a detail not shown here. Equal values may be shown once.
Molecular target: T1, acetylcholinesterase (Homo sapiens, UniProt P22303)
T1 construct: purchased Sigma-Aldrich (St. Louis, MO, USA)
Assay: biochemical
Type: biochemical
Settings: for IC50: concentration of acetylcholinesterase 0.2 U/mL, HPLC-DAD; for inhibition: single alkaloid standard, addition of 125 µL of 1 mg/mL (250 µg/mL final), acetylcholinesterase 10 U/mL
Procedure: For determination of acetylcholinesterase inhibitory activity, HPLC analysis was performed on the same apparatus as determination of alkaloid contents on Polar RP column with mobile phase A containing methanol and 0.0025 M diethylamine, mobile phase B containing acetate buffer at pH 3.8 and 0.0025 M diethylamine, and mobile phase in gradient elution: 0–15 min, 10% A; 15–30 min, 10–70% A; 30–60 min, 70% A. Flow rate was 1 mL/min.
[…] Samples for determination of acetylcholinesterase inhibitory activity were prepared by addition of 50 µL of acetylthiocholine iodide, 50 µL of 5′-dithiobis-(2-nitrobenzoic acid), […], and phosphate buffer at pH 7.8 to obtain 500 µL of final solution. […] All components were mixed and samples were incubated for 15 min at 37 °C. Samples were filtrated by syringe filter (CHROMAFIL Xtra, PVDF-29/25 0.20 µm) and injected into the HPLC system.

T1 sequence (P22303 32-614, species assumed): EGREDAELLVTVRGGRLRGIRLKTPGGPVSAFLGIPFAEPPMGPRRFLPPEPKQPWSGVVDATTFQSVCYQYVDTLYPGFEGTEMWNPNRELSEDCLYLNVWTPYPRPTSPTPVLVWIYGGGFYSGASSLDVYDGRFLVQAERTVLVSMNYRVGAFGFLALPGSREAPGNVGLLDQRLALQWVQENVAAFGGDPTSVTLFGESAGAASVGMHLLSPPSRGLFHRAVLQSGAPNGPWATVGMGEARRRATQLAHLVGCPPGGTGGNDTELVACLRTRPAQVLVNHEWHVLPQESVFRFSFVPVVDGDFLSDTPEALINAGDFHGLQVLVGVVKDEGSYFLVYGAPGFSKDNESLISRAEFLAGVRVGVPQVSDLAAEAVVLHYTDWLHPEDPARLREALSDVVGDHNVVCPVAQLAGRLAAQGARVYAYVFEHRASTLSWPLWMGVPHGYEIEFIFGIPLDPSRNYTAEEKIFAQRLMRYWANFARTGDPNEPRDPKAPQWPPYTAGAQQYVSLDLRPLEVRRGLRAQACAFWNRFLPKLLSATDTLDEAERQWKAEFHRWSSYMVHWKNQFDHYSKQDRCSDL

Compound | IC50 | inhibition [%] | % inhibition of acetylcholinesterase activity
CN1CCc2cc3c(cc2C(=O)Cc2ccc4c(c2C1)OCO4)OCO3 [Protopine] | 65.5 µM | ~22 | –
COc1ccc2c(c[n+](C)c3c4cc5c(cc4ccc23)OCO5)c1OC [Chelerythrine] | 0.718 µM and 0.72 µM | 100 | –
COc1ccc2cc3[n+](cc2c1OC)CCc1cc2c(cc1-3)OCO2 [Berberine] | – | – | highest activity
CN1Cc2c(ccc3c2OCO3)[C@@H]2[C@H]1c1cc3c(cc1C[C@@H]2O)OCO3 [Chelidonine] | 27 µM | 100 | –
C[n+]1cc2c3c(ccc2c2ccc4cc5c(cc4c21)OCO5)OCO3 [Sanguinarine] | 5.57 µM | – | –

Source: paper PMC7796366, “Application of HPLC-DAD for In Vitro Investigation of Acetylcholinesterase Inhibition Activity of Selected Isoquinoline Alkaloids from Sanguinaria canadensis Extracts” (Molecules, 2021)
